Patent US20240109900A1, “AZABICYCLIC SHP2 INHIBITORS” (IRBM S.P.A., priority 2021, published 2024)
Where two headings read alike, the source gives them in different places.

Columns and labels:
[1] = molecular target: SHP-2 enzyme (Met1-Leu525) (Homo sapiens (Human), UniProt Q06124); assay: SHP2 inhibition enzymatic assay; format: biochemical; settings: 75 μM DiFMUP substrate
Procedure, shortened: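 SHP-2 (Met1-Leu525), 0.5 nM, activated with 500 nM IRS1 bis-phosphopeptide, preincubated 30 min with compounds in HEPES pH 7.2 buffer with 5 mM DTT. 75 μM DiFMUP added for 30 min at room temperature, stopped with bpV; fluorescence read. IC50 from four-parameter logistic fit of % inhibition.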

[2] = test system: ERK phosphorylation in KYSE-520 cells; assay: Phospho-ERK cellular assay; format: cell-based; settings: Homo sapiens, read-out: PERK IC50
Procedure, shortened: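 TR-FRET read-out of ERK1/2 Thr202/Tyr204 phosphorylation was taken after overnight antibody incubation at room temperature. Before that, KYSE-520 cells were treated 2 h at 37 °C with compound dilutions and lysed 30 min. Percent inhibition relative to vehicle and cell-free wells was fitted four-parametrically to give IC50.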

[3] = 0.5 nM SHP-2 activated by 500 nM IRS1 peptide, read-out: SHP2wt-IC50
[4] = KYSE-520, 2 h, KYSE-520 cells, 2 h at 37° C., phospho-ERK1/2 (Thr202/Tyr204) TR-FRET

SHP-2 enzyme (Met1-Leu525), sequence (Q06124 1-525): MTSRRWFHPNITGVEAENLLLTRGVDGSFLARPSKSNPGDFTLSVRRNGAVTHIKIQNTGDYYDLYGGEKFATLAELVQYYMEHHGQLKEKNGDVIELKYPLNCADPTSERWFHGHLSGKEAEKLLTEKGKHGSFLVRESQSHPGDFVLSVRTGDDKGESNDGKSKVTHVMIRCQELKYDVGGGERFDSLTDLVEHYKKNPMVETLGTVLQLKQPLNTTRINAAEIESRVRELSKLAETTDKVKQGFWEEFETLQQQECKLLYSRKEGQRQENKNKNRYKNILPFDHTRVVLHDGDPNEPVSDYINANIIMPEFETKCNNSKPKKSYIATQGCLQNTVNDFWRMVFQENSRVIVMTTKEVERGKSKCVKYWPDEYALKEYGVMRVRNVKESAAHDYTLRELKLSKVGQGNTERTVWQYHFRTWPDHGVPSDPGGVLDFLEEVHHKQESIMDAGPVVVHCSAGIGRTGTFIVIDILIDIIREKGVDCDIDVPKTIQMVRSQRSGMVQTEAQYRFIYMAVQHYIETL

SMILES	IC50 [1, 3] [µM]	IC50 [2, 4] [µM]	IC50 ([2]; KYSE-520 cells, 2 h at 37° C., phospho-ERK1/2 (Thr202/Tyr204) TR-FRET) [µM]	IC50 ([1]; SHP2wt-IC50, 0.5 nM SHP-2 activated by 500 nM IRS1 peptide) [µM]	IC50 ([2]; KYSE-520, 2 h) [µM]
Cc1csc(C2(CN)C3CCN(c4cnc5c(-c6ccc(F)c7ncccc67)n[nH]c5n4)CC32)n1 (stereo not shown) [Example 92, (3-(3-(8-fluoroquinolin-5-yl)-1H-pyrazolo[3,4-b]pyrazin-6-yl)-7-(4-methylthiazol-2-yl)-3-azabicyclo[4.1.0]heptan-7-yl)methanamine]	< 0.5	< 1	–	–	–
NC[C@]1(c2ccccc2F)[C@@H]2CCN(c3cc(=O)n4cc(-c5cccc(Cl)c5Cl)ccc4n3)C[C@@H]21 [Example 408, 2-((1S,6R,7R)-7-(aminomethyl)-7-(2-fluorophenyl)-3-azabicyclo[4.1.0]heptan-3-yl)-7-(2,3-dichlorophenyl)-4H-pyrido[1,2-a]pyrimidin-4-one]	< 0.5	> 5	–	–	–
Cn1cc2c(C(F)F)c(-c3n[nH]c4nc(N5CC[C@@H]6[C@H](C5)[C@@]6(CN)c5ccccc5F)cnc34)ccc2n1 [Example 202, ((1S,6R,7R)-3-(3-(4-(difluoromethyl)-2-methyl-2H-indazol-5-yl)-1H-pyrazolo[3,4-b]pyrazin-6-yl)-7-(2-fluorophenyl)-3-azabicyclo[4.1.0]heptan-7-yl)methanamine]	< 0.5	< 1	–	–	–
Cc1cc(C2(CN)C3CCN(c4cnc5c(-c6ccnc(Cl)c6Cl)n[nH]c5n4)CC32)no1 (stereo not shown) [Example 31, (3-(3-(2,3-dichloropyridin-4-yl)-1H-pyrazolo[3,4-b]pyrazin-6-yl)-7-(5-methylisoxazol-3-yl)-3-azabicyclo[4.1.0]heptan-7-yl)methanamine]	< 0.5	< 1	–	–	–
COc1c2c(Cl)c(-c3n[nH]c4nc(N5CC[C@@H]6[C@H](C5)[C@@]6(CN)c5cc(C)on5)cnc34)ccc2nn1C [Example 109, ((1S,6R,7S)-3-(3-(4-chloro-3-methoxy-2-methyl-2H-indazol-5-yl)-1H-pyrazolo[3,4-b]pyrazin-6-yl)-7-(5-methylisoxazol-3-yl)-3-azabicyclo[4.1.0]heptan-7-yl)methanamine]	< 0.5	< 1	–	–	–
COc1cnc2ccc(-c3n[nH]c4nc(N5CC[C@@H]6[C@H](C5)[C@@]6(CN)c5ccccc5F)cnc34)c(Cl)c2n1 [Example 119, ((1S,6R,7R)-3-(3-(5-chloro-3-methoxyquinoxalin-6-yl)-1H-pyrazolo[3,4-b]pyrazin-6-yl)-7-(2-fluorophenyl)-3-azabicyclo[4.1.0]heptan-7-yl)methanamine]	< 0.5	< 1	–	–	–
Cc1c(-c2n[nH]c3nc(N4CC[C@@H]5[C@H](C4)[C@@]5(CN)c4ccccc4F)cnc23)ccc2nn(C)nc12 [Example 205, ((1S,6R,7R)-3-(3-(2,4-dimethyl-2H-benzo[d][1,2,3]triazol-5-yl)-1H-pyrazolo[3,4-b]pyrazin-6-yl)-7-(2-fluorophenyl)-3-azabicyclo[4.1.0]heptan-7-yl)methanamine]	< 0.5	< 1	–	–	–
Cc1cc(C2(CN)C3CCN(c4cnc5c(-c6ccnc(N)c6Cl)n[nH]c5n4)CC32)no1 (stereo not shown) [Example 36, 4-(6-(7-(aminomethyl)-7-(5-methylisoxazol-3-yl)-3-azabicyclo[4.1.0]heptan-3-yl)-1H-pyrazolo[3,4-b]pyrazin-3-yl)-3-chloropyridin-2-amine]	< 0.5	< 1	–	–	–
NCC1(c2cccc(F)c2)C2CCN(c3nc4[nH]nc(-c5ccccc5)c4nc3CO)CC21 (stereo not shown) [Example 56, (6-(7-(aminomethyl)-7-(3-fluorophenyl)-3-azabicyclo[4.1.0]heptan-3-yl)-3-phenyl-1H-pyrazolo[3,4-b]pyrazin-5-yl)methanol]	< 0.5	< 1	–	–	–
Cn1ccc([C@@]2(CN)[C@@H]3CN(c4cnc5c(-c6ccc7nn(C)cc7c6Cl)n[nH]c5n4)C[C@@H]32)n1 [Example 474, ((1R,5S,6r)-3-(3-(4-chloro-2-methyl-2H-indazol-5-yl)-1H-pyrazolo[3,4-b]pyrazin-6-yl)-6-(1-methyl-1H-pyrazol-3-yl)-3-azabicyclo[3.1.0]hexan-6-yl)methanamine]	< 0.5	< 1	–	–	–
CCOc1ccc(-c2n[nH]c3nc(N4CC[C@@H]5[C@H](C4)[C@@]5(CN)c4ccccc4F)cnc23)c2cccnc12 [Example 164, ((1S,6R,7R)-3-(3-(8-ethoxyquinolin-5-yl)-1H-pyrazolo[3,4-b]pyrazin-6-yl)-7-(2-fluorophenyl)-3-azabicyclo[4.1.0]heptan-7-yl)methanamine]	< 0.5	< 1	–	–	–
Cn1cc2c(Cl)c(-c3n[nH]c4nc(N5CC[C@@H]6[C@H](C5)[C@@]6(CN)c5ccc(F)cn5)cnc34)ccc2n1 [Example 120, ((1S,6R,7S)-3-(3-(4-chloro-2-methyl-2H-indazol-5-yl)-1H-pyrazolo[3,4-b]pyrazin-6-yl)-7-(5-fluoropyridin-2-yl)-3-azabicyclo[4.1.0]heptan-7-yl)methanamine]	< 0.5	< 1	–	–	–
CNC(=O)C1(CN)C2CCN(c3cnc4c(-c5ccc6nn(C)cc6c5Cl)n[nH]c4n3)CC21 (stereo not shown) [Example 287, 7-(aminomethyl)-3-(3-(4-chloro-2-methyl-2H-indazol-5-yl)-1H-pyrazolo[3,4-b]pyrazin-6-yl)-N-methyl-3-azabicyclo[4.1.0]heptane-7-carboxamide]	< 0.5	< 1	–	–	–
NC[C@]1(c2ccccc2F)[C@@H]2CCN(c3cnc4c(-c5cc(F)c(CO)c(F)c5)n[nH]c4n3)C[C@@H]21 [Example 381, (4-(6-((1S,6R,7R)-7-(aminomethyl)-7-(2-fluorophenyl)-3-azabicyclo[4.1.0]heptan-3-yl)-1H-pyrazolo[3,4-b]pyrazin-3-yl)-2,6-difluorophenyl)methanol]	< 0.5	> 5	–	–	–
Cn1ncc2ccc(-c3n[nH]c4nc(N5CC[C@@H]6[C@H](C5)[C@@]6(CN)c5ccccc5F)cnc34)c(Cl)c21 [Example 364, ((1S,6R,7R)-3-(3-(7-chloro-1-methyl-1H-indazol-6-yl)-1H-pyrazolo[3,4-b]pyrazin-6-yl)-7-(2-fluorophenyl)-3-azabicyclo[4.1.0]heptan-7-yl)methanamine]	< 0.5	< 1	–	–	–
NC[C@]1(c2ccccc2)[C@@H]2CN(c3cnc(Sc4cccnc4C(F)(F)F)c(N)n3)C[C@@H]21 [Example 104, 6-((1R,5S,6s)-6-(aminomethyl)-6-phenyl-3-azabicyclo[3.1.0]hexan-3-yl)-3-((2-(trifluoromethyl)pyridin-3-yl)thio)pyrazin-2-amine]	< 0.5	–	> 5	–	–
Cc1csc([C@@]2(CN)[C@@H]3CCN(c4cnc5c(-c6ccc(OS(=O)(=O)F)c7ncccc67)n[nH]c5n4)C[C@@H]32)n1 [Example 448, 5-(6-((1S,6R,7S)-7-(aminomethyl)-7-(4-methylthiazol-2-yl)-3-azabicyclo[4.1.0]heptan-3-yl)-1H-pyrazolo[3,4-b]pyrazin-3-yl)quinolin-8-yl sulfurofluoridate]	–	–	–	< 0.5	< 1
Cn1cc2c(Cl)c(-c3n[nH]c4nc(N5C[C@@H]6[C@H](C5)[C@@]6(CN)c5cccc(Cl)n5)cnc34)ccc2n1 [Example 494, ((1R,5S,6r)-3-(3-(4-chloro-2-methyl-2H-indazol-5-yl)-1H-pyrazolo[3,4-b]pyrazin-6-yl)-6-(6-chloropyridin-2-yl)-3-azabicyclo[3.1.0]hexan-6-yl)methanamine]	< 0.5	< 1	–	–	–
NC[C@]1(c2ccccc2F)[C@@H]2CCN(c3cnc4c(-c5cccc6c5CC(=O)N6)n[nH]c4n3)C[C@@H]21 [Example 122, 4-(6-((1S,6R,7R)-7-(aminomethyl)-7-(2-fluorophenyl)-3-azabicyclo[4.1.0]heptan-3-yl)-1H-pyrazolo[3,4-b]pyrazin-3-yl)indolin-2-one]	< 0.5	< 1	–	–	–
COc1ccc(-c2n[nH]c3nc(N4CC[C@@H]5[C@H](C4)[C@@]5(CN)c4ccccc4F)cnc23)c2cccnc12 [Example 146, ((1S,6R,7R)-7-(2-fluorophenyl)-3-(3-(8-methoxyquinolin-5-yl)-1H-pyrazolo[3,4-b]pyrazin-6-yl)-3-azabicyclo[4.1.0]heptan-7-yl)methanamine]	< 0.5	< 1	–	–	–
NCC1(c2ccsc2)C2CCN(c3nc4nc(Sc5cccnc5C(F)(F)F)cnc4[nH]3)CC21 (stereo not shown) [Example 64, (7-(thiophen-3-yl)-3-(5-((2-(trifluoromethyl)pyridin-3-yl)thio)-1H-imidazo[4,5-b]pyrazin-2-yl)-3-azabicyclo[4.1.0]heptan-7-yl)methanamine]	< 0.5	1 to 5	–	–	–
NC[C@]1(c2ccccc2F)[C@@H]2CCN(c3cnc4c(-c5ccc6cc(Cl)cnc6c5)n[nH]c4n3)C[C@@H]21 [Example 255, ((1S,6R,7R)-3-(3-(3-chloroquinolin-7-yl)-1H-pyrazolo[3,4-b]pyrazin-6-yl)-7-(2-fluorophenyl)-3-azabicyclo[4.1.0]heptan-7-yl)methanamine]	< 0.5	> 5	–	–	–
COc1cc(-c2ccc3nc(N4CC[C@@H]5[C@H](C4)[C@@]5(CN)c4ccccc4F)cnc3n2)cc2cccnc12 [Example 435, ((1S,6R,7R)-7-(2-fluorophenyl)-3-(6-(8-methoxyquinolin-6-yl)pyrido[2,3-b]pyrazin-2-yl)-3-azabicyclo[4.1.0]heptan-7-yl)methanamine]	< 0.5	< 1	–	–	–
